The text below walks through data of patent publication US20230365582A1, “NOVEL COMPOUNDS HAVING INHIBITORY ACTIVITY ON PROSTAGLANDIN E2 RECEPTOR AND USES THEREOF” (KANAPH THERAPEUTICS INC., priority 2020, published 2023).

Each structure is given as a SMILES string. Some results are limits rather than exact numbers.

In one experiment the target is T1, hEP2 (Homo sapiens, UniProt P43116).
T1 construct: expressed in transfected cells; host or cells: HEK293
The experiment can be described thus: hEP2 cAMP assay. The following applies: HEK293 cells overexpressing hEP2; PGE2 agonist 400 pM; graded per Table 21; read-out: IC50 (nM) EP2 cAMP. Type of experiment: cell-based. The method in brief: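 HEK293 cells overexpressing hEP2, serum-starved 4 h, then 1,000 cells/well treated with compound (10 μM–0.001 nM) plus 400 pM PGE2 (about EC50-80) in HBSS buffer with 0.5 mM IBMX for 12 min at room temperature. cAMP measured by TR-FRET (665/615 nm) as % of DMSO control; IC50 from 4-parameter fit, median of repeats.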

The target in another experiment is T2, hEP4 (Homo sapiens, UniProt P35408).
T2 construct: expressed in transfected cells; host or cells: HEK293
T2 sequence (P35408 whole entry): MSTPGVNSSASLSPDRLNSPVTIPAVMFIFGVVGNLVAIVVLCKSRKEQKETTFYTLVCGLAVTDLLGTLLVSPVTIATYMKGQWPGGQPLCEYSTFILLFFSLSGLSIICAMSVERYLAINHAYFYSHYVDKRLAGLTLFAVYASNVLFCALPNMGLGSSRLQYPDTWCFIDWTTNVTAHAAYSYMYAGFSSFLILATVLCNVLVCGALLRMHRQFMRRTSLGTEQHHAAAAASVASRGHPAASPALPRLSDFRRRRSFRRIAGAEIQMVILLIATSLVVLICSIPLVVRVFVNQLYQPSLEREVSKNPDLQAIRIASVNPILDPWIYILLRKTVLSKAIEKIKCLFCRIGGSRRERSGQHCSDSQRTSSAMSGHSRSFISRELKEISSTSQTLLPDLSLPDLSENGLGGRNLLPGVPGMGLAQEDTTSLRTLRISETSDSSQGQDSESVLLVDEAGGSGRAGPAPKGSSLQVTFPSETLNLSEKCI
The experiment can be described thus: hEP4 cAMP assay. Type of experiment: cell-based. Particulars: HEK293 cells overexpressing hEP4; PGE2 agonist 20 nM; graded per Table 21; read-out: IC50 (nM) EP4 cAMP. The gist of the method:
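HEK293 cells overexpressing hEP4, starved 4 h, were treated with compound (10 μM-0.001 nM) plus 20 nM PGE2 (EC50-80) in HBSS buffer with 0.5 mM IBMX for 18.5 min at room temperature. cAMP was read by TR-FRET (665/615 nm) as % of DMSO control; IC50 from 4-parameter fit, median of multiple experiments.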

T1 sequence (P43116 whole entry): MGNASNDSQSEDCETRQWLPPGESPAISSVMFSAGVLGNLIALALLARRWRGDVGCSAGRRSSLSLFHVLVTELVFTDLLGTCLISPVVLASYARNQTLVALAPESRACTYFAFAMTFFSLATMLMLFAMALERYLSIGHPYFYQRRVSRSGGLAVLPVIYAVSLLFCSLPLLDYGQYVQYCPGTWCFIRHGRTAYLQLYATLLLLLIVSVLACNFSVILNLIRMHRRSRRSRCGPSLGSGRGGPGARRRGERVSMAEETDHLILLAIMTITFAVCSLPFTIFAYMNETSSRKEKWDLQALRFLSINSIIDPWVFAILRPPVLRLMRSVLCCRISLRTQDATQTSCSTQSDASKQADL

For the compound `COc1cccc(-c2ccc(Cn3ccc4scc(C(=O)NC5CC6(C5)CC(C(=O)O)C6)c43)cc2)n1` (stereo not drawn) [Example 108, 6-(4-(4-(6-methoxypyridin-2-yl)benzyl)-4H-thieno[3,2-b]pyrrole-3-carboxamido)spiro[3.3]heptane-2-carboxylic acid], the IC50 is 500 to 5000 nM on hEP2 and under 500 nM at hEP4.

In the case of `COc1ccnc(-c2ccc(Cn3ccc4scc(C(=O)NC5CC6(C5)CC(C(=O)O)C6)c43)cc2)c1` (stereo not drawn) [Example 109, 6-(4-(4-(4-methoxypyridin-2-yl)benzyl)-4H-thieno[3,2-b]pyrrole-3-carboxamido)spiro[3.3]heptane-2-carboxylic acid], the IC50 on hEP2 is 500 to 5000 nM; at hEP4, under 500 nM.

Regarding `COc1cc(F)cc(-c2ccc(Cn3ccc4scc(C(=O)NC5CC6(C5)CC(C(=O)O)C6)c43)cn2)c1` (stereo not drawn) [Example 110, 6-(4-((6-(3-fluoro-5-methoxyphenyl)pyridin-3-yl)methyl)-4H-thieno[3,2-b]pyrrole-3-carboxamido)spiro[3.3]heptane-2-carboxylic acid], the half-maximal inhibitory concentration (IC50) on hEP2 and at hEP4 was under 500 nM throughout.

For `Cc1cnn(-c2ccc(Cn3ccc4scc(C(=O)NC5CC6(C5)CC(C(=O)O)C6)c43)cc2)c1` (stereo not drawn) [Example 111, 6-(4-(4-(4-methyl-1H-pyrazol-1-yl)benzyl)-4H-thieno[3,2-b]pyrrole-3-carboxamido)spiro[3.3]heptane-2-carboxylic acid], the values for the IC50 on hEP2 and at hEP4 were over 10000 nM and under 500 nM, respectively.

As to `Cc1cc(C(F)(F)F)n(-c2ccc(Cn3ccc4scc(C(=O)NC5CC6(C5)CC(C(=O)O)C6)c43)cc2)n1` (stereo not drawn) [Example 112, 6-(4-(4-(3-methyl-5-(trifluoromethyl)-IH-pyrazol-1-yl)benzyl)-4H-thieno[3,2-b]pyrrole-3-carboxamido)spiro[3.3]heptane-2-carboxylic acid], the 50% inhibitory concentration (IC50) on hEP2 is over 10000 nM; on hEP4, 500 to 5000 nM.

On to `COc1cc(F)cc(-c2ccc(Cn3ccc4scc(C(=O)NC5CC6(C5)CC(C(=O)O)C6)c43)nc2)c1` (stereo not drawn) [Example 113, 6-(4-((5-(3-fluoro-5-methoxyphenyl)pyridin-2-yl)methyl)-4H-thieno[3,2-b]pyrrole-3-carboxamido)spiro[3.3]heptane-2-carboxylic acid], for which the IC50 on hEP2 is 500 to 5000 nM; on hEP4 it was under 500 nM.
